Test results: ChEMBL document CHEMBL3132769, “Fragment growing to retain or alter the selectivity of anchored kinase hinge-binding fragments” (Medchemcomm, 2014)

Tests used:
[1] = target: T1, cGMP-dependent protein kinase 1 (Homo sapiens) (UniProt Q13976); assay: Inhibition of human full length PKG-1a expressed in baculovirus assessed as substrate phosphorylation using fluorescence-labelled peptides as substrate at 8 uM after 90 mins by microfluidic peptide phosphorylation assay
T1 sequence (whole entry): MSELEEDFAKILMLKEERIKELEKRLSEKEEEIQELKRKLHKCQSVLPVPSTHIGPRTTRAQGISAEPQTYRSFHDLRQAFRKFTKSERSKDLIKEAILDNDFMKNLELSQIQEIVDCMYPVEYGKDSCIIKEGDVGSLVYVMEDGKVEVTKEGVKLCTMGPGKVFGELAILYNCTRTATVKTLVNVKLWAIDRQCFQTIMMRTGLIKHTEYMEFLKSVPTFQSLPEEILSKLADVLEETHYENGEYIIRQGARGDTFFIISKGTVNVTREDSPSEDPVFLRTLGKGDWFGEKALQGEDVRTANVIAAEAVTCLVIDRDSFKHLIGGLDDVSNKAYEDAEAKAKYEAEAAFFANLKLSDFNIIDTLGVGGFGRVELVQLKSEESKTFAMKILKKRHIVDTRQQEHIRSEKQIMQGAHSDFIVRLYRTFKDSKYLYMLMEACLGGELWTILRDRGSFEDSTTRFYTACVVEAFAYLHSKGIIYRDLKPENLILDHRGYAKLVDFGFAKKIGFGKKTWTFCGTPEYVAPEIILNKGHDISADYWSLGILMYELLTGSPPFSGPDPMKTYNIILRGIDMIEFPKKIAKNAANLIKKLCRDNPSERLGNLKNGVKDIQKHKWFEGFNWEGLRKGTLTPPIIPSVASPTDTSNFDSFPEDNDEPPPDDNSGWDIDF

[2] = target: Casein kinase I isoform alpha (Homo sapiens) (UniProt P48729); assay: Inhibition of human full length CSNK1A1 expressed in baculovirus assessed as substrate phosphorylation using fluorescence-labelled peptides as substrate at 8 uM after 90 mins by microfluidic peptide phosphorylation assay
Sequence of Casein kinase I isoform alpha (Homo sapiens) (P48729 2-337 limits assumed): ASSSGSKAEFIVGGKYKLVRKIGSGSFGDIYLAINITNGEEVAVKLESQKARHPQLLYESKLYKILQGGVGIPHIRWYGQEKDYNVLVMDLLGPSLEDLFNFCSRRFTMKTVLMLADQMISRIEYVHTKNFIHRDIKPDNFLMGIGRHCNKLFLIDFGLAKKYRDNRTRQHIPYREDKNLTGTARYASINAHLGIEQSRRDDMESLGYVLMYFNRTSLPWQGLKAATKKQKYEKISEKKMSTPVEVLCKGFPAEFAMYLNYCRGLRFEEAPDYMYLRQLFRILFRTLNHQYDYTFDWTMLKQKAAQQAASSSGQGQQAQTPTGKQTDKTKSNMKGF

[3] = target: T2, Interleukin-1 receptor-associated kinase 4 (Homo sapiens) (UniProt Q9NWZ3); assay: Inhibition of human IRAK4 catalytic domain expressed in baculovirus assessed as substrate phosphorylation using fluorescence-labelled peptides as substrate at 8 uM after 90 mins by microfluidic peptide phosphorylation assay
T2 sequence (whole entry): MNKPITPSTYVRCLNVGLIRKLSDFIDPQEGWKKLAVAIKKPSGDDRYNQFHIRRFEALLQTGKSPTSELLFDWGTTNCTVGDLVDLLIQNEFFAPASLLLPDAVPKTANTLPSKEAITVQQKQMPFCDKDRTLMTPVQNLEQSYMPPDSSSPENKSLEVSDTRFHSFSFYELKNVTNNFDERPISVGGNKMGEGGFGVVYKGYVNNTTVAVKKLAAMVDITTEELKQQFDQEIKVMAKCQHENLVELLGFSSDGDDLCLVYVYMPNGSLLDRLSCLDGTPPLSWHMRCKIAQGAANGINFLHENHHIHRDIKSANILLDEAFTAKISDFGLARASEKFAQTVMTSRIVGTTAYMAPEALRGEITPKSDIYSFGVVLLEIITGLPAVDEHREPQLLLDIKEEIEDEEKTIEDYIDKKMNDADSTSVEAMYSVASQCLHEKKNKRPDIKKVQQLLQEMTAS

Homo sapiens = organism: Homo sapiens; assay: Inhibition of human full length PKA expressed in baculovirus assessed as substrate phosphorylation using fluorescence-labelled peptides as substrate at 0.06 uM after 90 mins by microfluidic peptide phosphorylation assay
[4] = target: T3, Inhibitor of nuclear factor kappa-B kinase subunit beta (Homo sapiens) (UniProt O14920); assay: Inhibition of human full length IKK beta expressed in baculovirus assessed as substrate phosphorylation using fluorescence-labelled peptides as substrate at 9 uM after 90 mins by microfluidic peptide phosphorylation assay
T3 sequence (whole entry): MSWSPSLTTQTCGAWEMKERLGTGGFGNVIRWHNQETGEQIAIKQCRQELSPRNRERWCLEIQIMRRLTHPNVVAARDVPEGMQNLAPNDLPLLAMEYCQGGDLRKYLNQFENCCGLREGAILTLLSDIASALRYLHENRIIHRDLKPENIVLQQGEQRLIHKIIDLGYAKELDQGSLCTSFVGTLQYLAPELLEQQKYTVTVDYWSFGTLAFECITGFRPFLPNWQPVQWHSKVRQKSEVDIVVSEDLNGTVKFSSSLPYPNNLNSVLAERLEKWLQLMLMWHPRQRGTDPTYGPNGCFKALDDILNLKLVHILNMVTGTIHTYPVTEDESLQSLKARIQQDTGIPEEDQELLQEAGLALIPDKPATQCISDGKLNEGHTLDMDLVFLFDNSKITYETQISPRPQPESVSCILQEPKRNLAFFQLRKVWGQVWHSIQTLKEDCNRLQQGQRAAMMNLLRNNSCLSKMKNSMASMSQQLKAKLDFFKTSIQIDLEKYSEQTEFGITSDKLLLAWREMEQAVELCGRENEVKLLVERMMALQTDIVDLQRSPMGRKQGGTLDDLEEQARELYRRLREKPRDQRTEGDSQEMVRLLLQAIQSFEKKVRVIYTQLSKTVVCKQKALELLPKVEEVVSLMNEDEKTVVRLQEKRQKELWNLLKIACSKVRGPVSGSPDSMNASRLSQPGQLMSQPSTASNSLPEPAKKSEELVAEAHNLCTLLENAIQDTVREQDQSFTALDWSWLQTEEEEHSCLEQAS

[5] = target: Protein kinase C beta type (Homo sapiens) (UniProt P05771); assay: Inhibition of human full length PKC beta2 expressed in baculovirus assessed as substrate phosphorylation using fluorescence-labelled peptides as substrate at 9 uM after 90 mins by microfluidic peptide phosphorylation assay
Sequence of Protein kinase C beta type (Homo sapiens) (P05771 2-671 limits assumed): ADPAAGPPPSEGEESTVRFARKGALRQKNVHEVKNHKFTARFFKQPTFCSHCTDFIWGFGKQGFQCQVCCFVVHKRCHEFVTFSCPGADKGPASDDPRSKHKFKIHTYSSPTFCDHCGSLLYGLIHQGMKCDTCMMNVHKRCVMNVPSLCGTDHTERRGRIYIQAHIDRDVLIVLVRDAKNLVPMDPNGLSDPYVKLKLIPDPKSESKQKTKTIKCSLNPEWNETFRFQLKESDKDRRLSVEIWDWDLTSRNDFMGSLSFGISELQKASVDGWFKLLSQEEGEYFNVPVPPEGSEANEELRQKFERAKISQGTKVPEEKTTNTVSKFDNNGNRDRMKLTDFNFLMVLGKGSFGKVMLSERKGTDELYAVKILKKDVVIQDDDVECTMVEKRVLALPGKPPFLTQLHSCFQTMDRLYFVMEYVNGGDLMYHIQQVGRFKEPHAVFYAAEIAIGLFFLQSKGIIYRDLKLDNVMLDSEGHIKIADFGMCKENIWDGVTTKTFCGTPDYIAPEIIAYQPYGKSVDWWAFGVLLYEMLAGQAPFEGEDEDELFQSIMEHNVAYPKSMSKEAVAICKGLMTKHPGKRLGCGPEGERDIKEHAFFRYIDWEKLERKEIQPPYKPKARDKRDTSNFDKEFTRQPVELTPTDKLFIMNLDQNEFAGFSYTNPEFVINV

[6] = target: Ribosomal protein S6 kinase alpha-4 (Homo sapiens) (UniProt O75676); assay: Inhibition of human full length MSK2 expressed in baculovirus assessed as substrate phosphorylation using fluorescence-labelled peptides as substrate at 9 uM after 90 mins by microfluidic peptide phosphorylation assay
Sequence of Ribosomal protein S6 kinase alpha-4 (Homo sapiens) (O75676 whole entry, looked up): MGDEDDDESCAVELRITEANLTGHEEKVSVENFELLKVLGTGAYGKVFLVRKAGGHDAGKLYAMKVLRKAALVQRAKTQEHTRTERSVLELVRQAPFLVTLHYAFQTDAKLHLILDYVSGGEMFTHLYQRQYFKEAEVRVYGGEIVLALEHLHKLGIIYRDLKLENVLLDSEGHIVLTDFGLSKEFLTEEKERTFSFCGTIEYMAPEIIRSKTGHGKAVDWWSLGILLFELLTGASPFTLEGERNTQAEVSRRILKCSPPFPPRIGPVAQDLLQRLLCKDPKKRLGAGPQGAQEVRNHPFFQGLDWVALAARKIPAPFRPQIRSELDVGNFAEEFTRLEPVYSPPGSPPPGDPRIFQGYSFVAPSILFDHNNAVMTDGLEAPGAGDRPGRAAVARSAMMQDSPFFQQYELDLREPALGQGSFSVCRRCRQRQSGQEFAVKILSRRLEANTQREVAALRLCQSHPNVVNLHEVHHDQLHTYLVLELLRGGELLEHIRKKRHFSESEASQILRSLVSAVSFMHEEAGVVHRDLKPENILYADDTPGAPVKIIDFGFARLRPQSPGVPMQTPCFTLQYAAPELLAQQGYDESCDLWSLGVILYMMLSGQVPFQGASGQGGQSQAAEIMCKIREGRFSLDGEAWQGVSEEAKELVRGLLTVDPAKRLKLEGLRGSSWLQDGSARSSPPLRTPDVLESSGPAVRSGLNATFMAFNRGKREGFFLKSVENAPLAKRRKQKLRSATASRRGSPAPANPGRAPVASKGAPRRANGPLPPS

[7] = target: Tyrosine-protein kinase Lyn (Homo sapiens) (UniProt P07948); assay: Inhibition of human full length LYN expressed in baculovirus assessed as substrate phosphorylation using fluorescence-labelled peptides as substrate at 70 uM after 90 mins by microfluidic peptide phosphorylation assay
Sequence of Tyrosine-protein kinase Lyn (Homo sapiens) (P07948 2-512 limits assumed): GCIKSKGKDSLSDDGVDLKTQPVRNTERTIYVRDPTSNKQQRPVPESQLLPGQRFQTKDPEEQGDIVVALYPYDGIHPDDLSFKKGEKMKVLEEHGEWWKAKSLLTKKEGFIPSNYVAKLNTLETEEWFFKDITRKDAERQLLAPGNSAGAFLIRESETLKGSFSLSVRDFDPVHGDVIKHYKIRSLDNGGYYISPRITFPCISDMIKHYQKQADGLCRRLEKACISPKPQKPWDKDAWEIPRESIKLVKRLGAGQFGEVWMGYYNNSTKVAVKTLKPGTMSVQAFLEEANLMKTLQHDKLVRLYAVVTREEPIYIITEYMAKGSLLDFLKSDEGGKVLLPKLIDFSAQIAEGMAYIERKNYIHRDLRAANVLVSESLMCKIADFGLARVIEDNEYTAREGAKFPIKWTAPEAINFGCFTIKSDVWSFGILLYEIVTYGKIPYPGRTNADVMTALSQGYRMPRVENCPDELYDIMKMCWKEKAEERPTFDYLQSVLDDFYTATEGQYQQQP

## NCC1CCN(c2ncnc3[nH]ccc23)CC1
[1]
  inhibition: 14%
[2]
  inhibition: 32.5%
[3]
  inhibition: 25.5%

## NC1(Cc2ccc(Cl)cc2)CCN(c2ncnc3[nH]ccc23)CC1
Homo sapiens
  inhibition: 17%

## NCC1CN(c2ncnc3[nH]c4cnccc4c23)CCO1 (stereo not drawn)
[4]
  inhibition: 83%
[5]
  inhibition: 23.5%
[6]
  inhibition: 52%

## CNCc1ccc(-c2ncnc3[nH]cnc23)cc1
[7]
  inhibition: 35%
